Results from the supplement of paper PMC8967900.

How the values were obtained:
Test in all cases: selective drug sensitivity score (sDSS, relative to normal bone marrow) (sDSS (score)); higher = more potent and effective on the cell line relative to normal bone marrow cells
Conditions in all cases: 72 h
380 = system: 380
COG-LL-394h = system: COG-LL-394h
COG-LL-402h = system: COG-LL-402h
HPB-ALL = system: HPB-ALL
KARPAS-45 = system: KARPAS-45
KASUMI-10 = system: KASUMI-10
KOPN-8 = system: KOPN-8
MHH-CALL-2 = system: MHH-CALL-2
MHH-CALL-3 = system: MHH-CALL-3
MHH-CALL-4 = system: MHH-CALL-4
MN-60 = system: MN-60
MOLT-14 = system: MOLT-14
NALL-1 = system: NALL-1
NALM-16 = system: NALM-16
P30-OHKUBO = system: P30-OHKUBO
RCH-ACV = system: RCH-ACV
REH = system: REH
SEM cells = system: SEM cells
TANOUE = system: TANOUE
TMD5 = system: TMD5
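Also: ALL cell lines in 384-well plates, five doses spanning 10,000-fold, each plate scaled between vehicle and 100 µmol/L benzalkonium chloride controls, sDSS an adapted area-under-curve metric.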

C=CC(=O)Nc1cccc(Nc2nc(Nc3ccc(OCCOC)cc3)ncc2F)c1 [Spebrutinib] (top concentration 1000 nM)
selective drug sensitivity score 380: -0.16
selective drug sensitivity score (COG-LL-394h): -0.16
selective drug sensitivity score (COG-LL-402h): 0.84
selective drug sensitivity score (HPB-ALL): -0.16
selective drug sensitivity score (KARPAS-45): 1.14
selective drug sensitivity score (KASUMI-10): 3.64
selective drug sensitivity score (KOPN-8): -0.16
selective drug sensitivity score (MHH-CALL-2): 5.84
selective drug sensitivity score (MHH-CALL-3): 2.34
selective drug sensitivity score (MHH-CALL-4): 3.24
selective drug sensitivity score (MN-60): -0.16
selective drug sensitivity score (MOLT-14): -0.16
selective drug sensitivity score (NALL-1): 6.34
selective drug sensitivity score (NALM-16): -0.16
selective drug sensitivity score (P30-OHKUBO): 4.64
selective drug sensitivity score (RCH-ACV): 4.14
selective drug sensitivity score (REH): -0.16
selective drug sensitivity score (SEM cells): 3.74
selective drug sensitivity score (TANOUE): -0.16
selective drug sensitivity score (TMD5): -0.16

CC(C)(O)CNc1nc(Nc2ccnc(C(F)(F)F)c2)nc(-c2cccc(C(F)(F)F)n2)n1 [Enasidenib] (top concentration 10000 nM)
selective drug sensitivity score 380: -0.8
selective drug sensitivity score (COG-LL-394h): 1.7
selective drug sensitivity score (COG-LL-402h): -0.7
selective drug sensitivity score (HPB-ALL): -0.5
selective drug sensitivity score (KARPAS-45): 4.1
selective drug sensitivity score (KASUMI-10): -0.8
selective drug sensitivity score (KOPN-8): 1.2
selective drug sensitivity score (MHH-CALL-2): -0.4
selective drug sensitivity score (MHH-CALL-3): 0.8
selective drug sensitivity score (MHH-CALL-4): -0.8
selective drug sensitivity score (MN-60): -0.8
selective drug sensitivity score (MOLT-14): -0.8
selective drug sensitivity score (NALL-1): -0.8
selective drug sensitivity score (NALM-16): -0.8
selective drug sensitivity score (P30-OHKUBO): 1.2
selective drug sensitivity score (RCH-ACV): 2.2
selective drug sensitivity score (REH): -0.8
selective drug sensitivity score (SEM cells): 2.3
selective drug sensitivity score (TANOUE): -0.8
selective drug sensitivity score (TMD5): -0.8

O=C(CCNC(=O)c1ccc(OC(F)(F)F)cc1)N[C@@H]1CCCc2ccccc21 [ML390] (top concentration 50000 nM)
selective drug sensitivity score 380: 12.4
selective drug sensitivity score (COG-LL-394h): -1.2
selective drug sensitivity score (COG-LL-402h): 3.2
selective drug sensitivity score (HPB-ALL): 6.5
selective drug sensitivity score (KARPAS-45): 7.1
selective drug sensitivity score (KASUMI-10): 4.1
selective drug sensitivity score (KOPN-8): 22.3
selective drug sensitivity score (MHH-CALL-2): 4.1
selective drug sensitivity score (MHH-CALL-3): -1.2
selective drug sensitivity score (MHH-CALL-4): 1.8
selective drug sensitivity score (MN-60): 16.8
selective drug sensitivity score (MOLT-14): 16.6
selective drug sensitivity score (NALL-1): -1.2
selective drug sensitivity score (NALM-16): 6.6
selective drug sensitivity score (P30-OHKUBO): 13.6
selective drug sensitivity score (RCH-ACV): 21
selective drug sensitivity score (REH): 16.1
selective drug sensitivity score (SEM cells): 10.8
selective drug sensitivity score (TANOUE): 3.5
selective drug sensitivity score (TMD5): -1.2

C[C@H]1Oc2cc(cnc2N)-c2c(nn(C)c2C#N)CN(C)C(=O)c2ccc(F)cc21 (top concentration 1000 nM)
selective drug sensitivity score 380: -0.72
selective drug sensitivity score (COG-LL-394h): -0.72
selective drug sensitivity score (COG-LL-402h): -0.72
selective drug sensitivity score (HPB-ALL): -0.72
selective drug sensitivity score (KARPAS-45): -0.72
selective drug sensitivity score (KASUMI-10): -0.72
selective drug sensitivity score (KOPN-8): 11.3
selective drug sensitivity score (MHH-CALL-2): -0.72
selective drug sensitivity score (MHH-CALL-3): -0.72
selective drug sensitivity score (MHH-CALL-4): -0.72
selective drug sensitivity score (MN-60): -0.72
selective drug sensitivity score (MOLT-14): -0.72
selective drug sensitivity score (NALL-1): -0.72
selective drug sensitivity score (NALM-16): -0.72
selective drug sensitivity score (P30-OHKUBO): -0.02
selective drug sensitivity score (RCH-ACV): 3.38
selective drug sensitivity score (REH): -0.72
selective drug sensitivity score (SEM cells): -0.72
selective drug sensitivity score (TANOUE): -0.72
selective drug sensitivity score (TMD5): -0.62

CCCc1cc(C)[nH]c(=O)c1CNC(=O)c1cc(-c2ccnc(N3CCN(C)CC3)c2)cc2c1cnn2C(C)C [GSK343] (top concentration 1000 nM)
selective drug sensitivity score 380: 0
selective drug sensitivity score (COG-LL-394h): 0.1
selective drug sensitivity score (COG-LL-402h): 0
selective drug sensitivity score (HPB-ALL): 0
selective drug sensitivity score (KARPAS-45): 0
selective drug sensitivity score (KASUMI-10): 0
selective drug sensitivity score (KOPN-8): 0
selective drug sensitivity score (MHH-CALL-2): 0
selective drug sensitivity score (MHH-CALL-3): 0
selective drug sensitivity score (MHH-CALL-4): 0
selective drug sensitivity score (MN-60): 0
selective drug sensitivity score (MOLT-14): 2
selective drug sensitivity score (NALL-1): 0
selective drug sensitivity score (NALM-16): 0
selective drug sensitivity score (P30-OHKUBO): 0
selective drug sensitivity score (RCH-ACV): 0
selective drug sensitivity score (REH): 0
selective drug sensitivity score (SEM cells): 0
selective drug sensitivity score (TANOUE): 0
selective drug sensitivity score (TMD5): 0

Cc1ccc(NC(=O)c2ccc(CN3CC[C@H](N(C)C)C3)c(C(F)(F)F)c2)cc1Nc1nccc(-c2cncnc2)n1 [Bafetinib] (top concentration 1000 nM)
selective drug sensitivity score 380: 0
selective drug sensitivity score (COG-LL-394h): 3
selective drug sensitivity score (COG-LL-402h): 0.5
selective drug sensitivity score (HPB-ALL): 0
selective drug sensitivity score (KARPAS-45): 0
selective drug sensitivity score (KASUMI-10): 0
selective drug sensitivity score (KOPN-8): 3.1
selective drug sensitivity score (MHH-CALL-2): 0
selective drug sensitivity score (MHH-CALL-3): 0
selective drug sensitivity score (MHH-CALL-4): 0
selective drug sensitivity score (MN-60): 4
selective drug sensitivity score (MOLT-14): 0.3
selective drug sensitivity score (NALL-1): 0
selective drug sensitivity score (NALM-16): 0
selective drug sensitivity score (P30-OHKUBO): 0
selective drug sensitivity score (RCH-ACV): 0.4
selective drug sensitivity score (REH): 0.2
selective drug sensitivity score (SEM cells): 0
selective drug sensitivity score (TANOUE): 0
selective drug sensitivity score (TMD5): 9.1

FC(F)c1nc2ccccc2n1-c1nc(N2CCOCC2)nc(N2CCOCC2)n1 [ZSTK474] (top concentration 10000 nM)
selective drug sensitivity score 380: 13.7
selective drug sensitivity score (COG-LL-394h): 0.86
selective drug sensitivity score (COG-LL-402h): 13.6
selective drug sensitivity score (HPB-ALL): -1.04
selective drug sensitivity score (KARPAS-45): 5.96
selective drug sensitivity score (KASUMI-10): 0.96
selective drug sensitivity score (KOPN-8): 11.9
selective drug sensitivity score (MHH-CALL-2): 11.4
selective drug sensitivity score (MHH-CALL-3): 10.3
selective drug sensitivity score (MHH-CALL-4): 7.46
selective drug sensitivity score (MN-60): 0.36
selective drug sensitivity score (MOLT-14): -4.14
selective drug sensitivity score (NALL-1): 1.96
selective drug sensitivity score (NALM-16): 0.56
selective drug sensitivity score (P30-OHKUBO): 13.3
selective drug sensitivity score (RCH-ACV): 28.4
selective drug sensitivity score (REH): 9.36
selective drug sensitivity score (SEM cells): 5.66
selective drug sensitivity score (TANOUE): -7.04
selective drug sensitivity score (TMD5): -1.04

CN1CCN(c2cc(C(=O)Nc3ccc4c(c3)-c3c(c(C(N)=O)nn3-c3ccc(F)cc3)CC4)c(Cl)cn2)CC1 [PHA-408] (top concentration 10000 nM)
selective drug sensitivity score 380: 5.68
selective drug sensitivity score (COG-LL-394h): -1.22
selective drug sensitivity score (COG-LL-402h): -3.92
selective drug sensitivity score (HPB-ALL): -0.92
selective drug sensitivity score (KARPAS-45): 0.98
selective drug sensitivity score (KASUMI-10): 0.18
selective drug sensitivity score (KOPN-8): 3.88
selective drug sensitivity score (MHH-CALL-2): 1.58
selective drug sensitivity score (MHH-CALL-3): -0.72
selective drug sensitivity score (MHH-CALL-4): 2.18
selective drug sensitivity score (MN-60): -4.12
selective drug sensitivity score (MOLT-14): -0.22
selective drug sensitivity score (NALL-1): -0.82
selective drug sensitivity score (NALM-16): -4.62
selective drug sensitivity score (P30-OHKUBO): 1.48
selective drug sensitivity score (RCH-ACV): 5.28
selective drug sensitivity score (REH): 0.08
selective drug sensitivity score (SEM cells): -2.02
selective drug sensitivity score (TANOUE): -4.92
selective drug sensitivity score (TMD5): -1.22

NCCNc1ccc(NCCN)c2c1C(=O)c1ccncc1C2=O [Pixantrone] (top concentration 10000 nM)
selective drug sensitivity score 380: -2.76
selective drug sensitivity score (COG-LL-394h): -2.66
selective drug sensitivity score (COG-LL-402h): -2.76
selective drug sensitivity score (HPB-ALL): -2.66
selective drug sensitivity score (KARPAS-45): -0.86
selective drug sensitivity score (KASUMI-10): -1.36
selective drug sensitivity score (KOPN-8): -0.56
selective drug sensitivity score (MHH-CALL-2): 1.34
selective drug sensitivity score (MHH-CALL-3): -2.76
selective drug sensitivity score (MHH-CALL-4): -2.56
selective drug sensitivity score (MN-60): -2.76
selective drug sensitivity score (MOLT-14): -2.76
selective drug sensitivity score (NALL-1): -2.76
selective drug sensitivity score (NALM-16): -2.76
selective drug sensitivity score (P30-OHKUBO): -1.06
selective drug sensitivity score (RCH-ACV): -2.76
selective drug sensitivity score (REH): 0.24
selective drug sensitivity score (SEM cells): -1.36
selective drug sensitivity score (TANOUE): -2.76
selective drug sensitivity score (TMD5): -2.06
